pIC50: −log10 of the molar value.
What was measured:
Type in all cases: biochemical
PI3K β (p110β/p85α) = target: T1, PI3K β (p110β/p85α) (Homo sapiens, UniProt P42338); test: PI 3-Kinase (human) HTRF assay, PI3K β; conditions: read-out: PI3K β IC50
T1 construct: purchased Upstate / Millipore Corporation
Experimental: (§1) Briefly, the assay is a time resolved FRET assay that indirectly measures PIP3 product formed by the activity of a PI3-K. The kinase reaction is performed in a microtiter plate (e.g., a 384 well microtiter plate). The total reaction volume is approximately 20 ul per well. In the first step, each well receives 2 ul of test compound in 20% dimethylsulphoxide resulting in a 2% DMSO final concentration. […] The plate is sealed and incubated for 15 minutes at room temperature. […] The plate is sealed and incubated for 1 hour at room temperature. The reaction is stopped by adding 5 ul of Stop Solution per well and then 5 ul of Detection Mix is added per well. The plate is sealed, incubated for 1 hour at room temperature, and then read on an appropriate plate reader. Data is analyzed and IC50s are generated using GraphPad Prism 5.

PI3K δ = target: T2, PI3K δ (Homo sapiens, UniProt O00329); test: PI 3-Kinase (human) HTRF assay, PI3K δ; conditions: read-out: PI3K δ IC50
T2 construct: purchased Upstate / Millipore Corporation

PI3K α (p110α/p85α) = target: T3, PI3K α (p110α/p85α) (Homo sapiens, UniProt P42336); test: PI 3-Kinase (human) HTRF assay, PI3K α; conditions: read-out: PI3K α IC50
T3 construct: purchased Upstate / Millipore Corporation
Experimental: as §1

PI3K γ (p110γ) = target: T4, PI3K γ (p110γ) (Homo sapiens, UniProt P48736); test: PI 3-Kinase (human) HTRF assay, PI3K γ; conditions: read-out: PI3K γ IC50
T4 construct: purchased Upstate / Millipore Corporation
T4 sequence (P48736 whole entry): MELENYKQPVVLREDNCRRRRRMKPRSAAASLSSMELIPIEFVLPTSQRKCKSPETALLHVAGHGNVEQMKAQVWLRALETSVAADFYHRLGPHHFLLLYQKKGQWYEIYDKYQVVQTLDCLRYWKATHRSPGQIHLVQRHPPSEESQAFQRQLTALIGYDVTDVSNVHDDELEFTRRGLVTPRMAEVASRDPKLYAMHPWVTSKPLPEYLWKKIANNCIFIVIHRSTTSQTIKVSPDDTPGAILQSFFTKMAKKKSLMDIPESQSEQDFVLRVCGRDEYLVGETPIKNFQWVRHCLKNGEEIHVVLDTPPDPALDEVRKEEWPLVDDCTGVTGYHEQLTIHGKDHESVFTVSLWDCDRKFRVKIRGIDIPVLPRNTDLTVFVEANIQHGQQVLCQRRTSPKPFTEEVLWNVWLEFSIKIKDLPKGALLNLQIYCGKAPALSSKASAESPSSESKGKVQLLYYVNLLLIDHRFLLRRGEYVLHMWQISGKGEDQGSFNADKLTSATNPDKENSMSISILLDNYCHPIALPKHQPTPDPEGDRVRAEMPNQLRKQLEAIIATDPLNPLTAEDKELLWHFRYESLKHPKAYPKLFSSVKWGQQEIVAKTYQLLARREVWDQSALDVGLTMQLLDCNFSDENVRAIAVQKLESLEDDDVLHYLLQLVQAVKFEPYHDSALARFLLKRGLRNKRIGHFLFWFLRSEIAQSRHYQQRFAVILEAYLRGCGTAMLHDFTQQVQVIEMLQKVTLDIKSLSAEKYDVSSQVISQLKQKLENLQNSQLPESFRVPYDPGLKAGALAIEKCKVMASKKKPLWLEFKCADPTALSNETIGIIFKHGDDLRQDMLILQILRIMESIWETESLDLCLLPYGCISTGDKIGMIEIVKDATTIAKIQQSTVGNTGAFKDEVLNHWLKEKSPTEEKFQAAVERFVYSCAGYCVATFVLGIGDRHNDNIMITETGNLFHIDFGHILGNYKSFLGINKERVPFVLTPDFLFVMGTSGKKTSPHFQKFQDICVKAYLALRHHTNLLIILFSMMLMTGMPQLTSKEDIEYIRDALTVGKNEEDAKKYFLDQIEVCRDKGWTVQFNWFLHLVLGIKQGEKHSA

T3 sequence (P42336 whole entry): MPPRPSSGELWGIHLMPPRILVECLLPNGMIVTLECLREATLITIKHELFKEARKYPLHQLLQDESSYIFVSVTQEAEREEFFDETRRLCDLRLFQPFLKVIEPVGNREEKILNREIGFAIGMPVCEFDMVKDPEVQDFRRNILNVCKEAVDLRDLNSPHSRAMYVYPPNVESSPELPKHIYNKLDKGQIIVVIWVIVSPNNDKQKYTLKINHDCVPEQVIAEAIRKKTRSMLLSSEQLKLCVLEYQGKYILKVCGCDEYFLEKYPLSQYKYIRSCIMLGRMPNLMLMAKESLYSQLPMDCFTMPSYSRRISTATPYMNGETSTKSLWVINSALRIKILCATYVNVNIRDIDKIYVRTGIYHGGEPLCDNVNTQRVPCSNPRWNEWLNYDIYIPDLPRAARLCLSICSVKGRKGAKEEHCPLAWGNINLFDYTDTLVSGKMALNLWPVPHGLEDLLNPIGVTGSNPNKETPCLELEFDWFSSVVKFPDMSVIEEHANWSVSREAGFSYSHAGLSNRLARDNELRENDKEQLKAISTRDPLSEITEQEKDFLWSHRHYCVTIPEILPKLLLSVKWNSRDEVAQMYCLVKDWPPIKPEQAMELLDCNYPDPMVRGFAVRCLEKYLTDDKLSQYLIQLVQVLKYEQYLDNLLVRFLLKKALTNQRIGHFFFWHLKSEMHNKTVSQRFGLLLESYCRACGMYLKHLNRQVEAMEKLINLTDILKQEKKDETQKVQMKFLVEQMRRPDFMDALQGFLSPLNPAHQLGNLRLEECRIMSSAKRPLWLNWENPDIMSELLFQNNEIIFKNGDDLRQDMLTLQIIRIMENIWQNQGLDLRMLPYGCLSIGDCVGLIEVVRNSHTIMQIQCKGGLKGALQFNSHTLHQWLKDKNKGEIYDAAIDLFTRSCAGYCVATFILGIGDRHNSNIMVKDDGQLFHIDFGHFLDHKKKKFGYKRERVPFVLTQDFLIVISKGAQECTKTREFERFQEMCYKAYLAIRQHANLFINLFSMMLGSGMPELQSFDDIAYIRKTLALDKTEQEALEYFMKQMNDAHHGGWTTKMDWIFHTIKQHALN
T3 sequence (P27986 whole entry partner): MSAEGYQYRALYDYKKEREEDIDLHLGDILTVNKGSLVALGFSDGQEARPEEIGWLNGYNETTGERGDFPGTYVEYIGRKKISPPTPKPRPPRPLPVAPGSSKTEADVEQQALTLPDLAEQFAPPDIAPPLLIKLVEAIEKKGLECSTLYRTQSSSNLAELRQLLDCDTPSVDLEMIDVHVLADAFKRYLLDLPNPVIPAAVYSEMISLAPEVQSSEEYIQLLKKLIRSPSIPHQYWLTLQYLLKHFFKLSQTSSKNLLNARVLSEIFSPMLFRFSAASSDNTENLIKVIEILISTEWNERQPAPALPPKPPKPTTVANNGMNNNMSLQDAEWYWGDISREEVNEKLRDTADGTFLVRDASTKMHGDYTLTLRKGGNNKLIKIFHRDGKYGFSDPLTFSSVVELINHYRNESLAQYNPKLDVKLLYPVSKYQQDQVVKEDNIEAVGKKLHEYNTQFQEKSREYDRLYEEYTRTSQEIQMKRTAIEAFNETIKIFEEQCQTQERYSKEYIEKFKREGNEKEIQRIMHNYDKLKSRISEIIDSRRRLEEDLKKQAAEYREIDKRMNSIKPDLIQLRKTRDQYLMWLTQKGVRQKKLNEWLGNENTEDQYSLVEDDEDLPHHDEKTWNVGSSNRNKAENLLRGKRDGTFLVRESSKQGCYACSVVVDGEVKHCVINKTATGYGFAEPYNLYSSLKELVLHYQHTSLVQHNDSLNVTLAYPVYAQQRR
T2 sequence (O00329 whole entry): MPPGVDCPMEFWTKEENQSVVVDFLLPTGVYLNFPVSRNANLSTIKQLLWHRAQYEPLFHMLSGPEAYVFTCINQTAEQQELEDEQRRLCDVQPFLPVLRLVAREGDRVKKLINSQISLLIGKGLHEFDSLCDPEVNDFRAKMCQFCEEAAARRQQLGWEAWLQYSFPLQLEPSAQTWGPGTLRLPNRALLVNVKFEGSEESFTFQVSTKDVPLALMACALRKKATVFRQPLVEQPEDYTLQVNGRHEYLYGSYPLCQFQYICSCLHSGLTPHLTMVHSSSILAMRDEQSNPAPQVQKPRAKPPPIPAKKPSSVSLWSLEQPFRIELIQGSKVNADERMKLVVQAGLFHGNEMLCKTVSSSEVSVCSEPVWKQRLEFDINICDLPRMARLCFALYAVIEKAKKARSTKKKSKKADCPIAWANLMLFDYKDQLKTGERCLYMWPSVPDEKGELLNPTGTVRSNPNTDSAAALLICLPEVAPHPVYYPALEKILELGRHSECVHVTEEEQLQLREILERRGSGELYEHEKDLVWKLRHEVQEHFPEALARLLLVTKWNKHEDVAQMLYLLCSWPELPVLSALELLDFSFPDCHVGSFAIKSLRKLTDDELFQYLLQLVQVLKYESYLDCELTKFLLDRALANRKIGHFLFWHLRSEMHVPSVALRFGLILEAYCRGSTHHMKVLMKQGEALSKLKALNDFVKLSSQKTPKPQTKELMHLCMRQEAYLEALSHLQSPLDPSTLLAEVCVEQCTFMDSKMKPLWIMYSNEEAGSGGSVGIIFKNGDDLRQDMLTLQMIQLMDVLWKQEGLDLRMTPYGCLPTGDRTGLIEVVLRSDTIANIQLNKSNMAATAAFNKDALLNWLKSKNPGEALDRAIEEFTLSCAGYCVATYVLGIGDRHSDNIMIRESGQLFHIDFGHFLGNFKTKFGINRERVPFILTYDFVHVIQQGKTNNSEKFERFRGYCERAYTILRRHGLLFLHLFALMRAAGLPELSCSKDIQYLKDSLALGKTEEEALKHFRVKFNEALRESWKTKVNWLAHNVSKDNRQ
T2 sequence (P27986 whole entry partner): as the sequence (P27986 whole entry partner) above
T1 sequence (P42338 whole entry): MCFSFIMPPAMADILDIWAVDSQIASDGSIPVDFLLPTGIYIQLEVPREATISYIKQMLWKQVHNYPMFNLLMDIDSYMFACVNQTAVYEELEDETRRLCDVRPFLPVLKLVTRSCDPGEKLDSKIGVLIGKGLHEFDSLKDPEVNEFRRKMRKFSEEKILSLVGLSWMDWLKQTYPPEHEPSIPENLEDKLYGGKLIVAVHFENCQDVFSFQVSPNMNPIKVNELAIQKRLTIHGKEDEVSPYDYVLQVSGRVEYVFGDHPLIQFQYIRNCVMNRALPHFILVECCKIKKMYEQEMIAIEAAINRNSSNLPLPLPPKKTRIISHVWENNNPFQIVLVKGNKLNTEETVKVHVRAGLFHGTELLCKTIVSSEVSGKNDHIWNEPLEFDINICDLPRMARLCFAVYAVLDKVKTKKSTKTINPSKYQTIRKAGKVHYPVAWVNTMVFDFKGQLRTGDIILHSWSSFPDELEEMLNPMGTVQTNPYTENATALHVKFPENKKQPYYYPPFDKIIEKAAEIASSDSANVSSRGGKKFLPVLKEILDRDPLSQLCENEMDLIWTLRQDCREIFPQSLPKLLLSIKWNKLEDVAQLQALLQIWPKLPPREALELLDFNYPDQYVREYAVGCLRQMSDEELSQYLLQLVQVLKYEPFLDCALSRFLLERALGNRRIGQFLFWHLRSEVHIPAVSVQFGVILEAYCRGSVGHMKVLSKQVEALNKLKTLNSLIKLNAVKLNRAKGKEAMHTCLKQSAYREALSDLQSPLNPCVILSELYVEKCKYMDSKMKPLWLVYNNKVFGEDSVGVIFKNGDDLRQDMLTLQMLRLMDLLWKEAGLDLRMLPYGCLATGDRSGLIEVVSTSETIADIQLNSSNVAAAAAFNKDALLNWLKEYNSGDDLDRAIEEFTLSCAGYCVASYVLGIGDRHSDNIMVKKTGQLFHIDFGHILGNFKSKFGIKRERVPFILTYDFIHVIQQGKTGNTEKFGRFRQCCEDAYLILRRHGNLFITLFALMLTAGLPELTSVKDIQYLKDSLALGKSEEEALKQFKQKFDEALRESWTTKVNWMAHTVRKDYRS
T1 sequence (P27986 whole entry partner): as the sequence (P27986 whole entry partner) above

Structure (SMILES) | pIC50 (PI3K β (p110β/p85α)) | pIC50 (PI3K δ) | pIC50 (PI3K α (p110α/p85α)) | pIC50 (PI3K γ (p110γ))
Cc1cc(-c2ccc3ncc(C(=O)N4CCOCC4)n3c2)cc2nc(N)oc12 [Compound 364] | > 5.00 | < 5.00 | > 6.00 | > 6.00
Cc1cc(-c2ccc3ncc(N4CC(N5CCOCC5)C4)nc3c2)cc2nc(N)oc12 [Compound 365] | > 5.00 | > 5.00 | > 5.00 | > 5.00
CN(C)C1CN(c2cnc3ccc(-c4ccc5oc(N)nc5c4)cc3n2)C1 [Compound 366] | > 5.00 | < 5.00 | > 7.00 | > 5.00
Nc1nc2cc(-c3ccc4ncc(N5CC(N)C5)nc4c3)ccc2o1 [Compound 367] | > 6.00 | > 5.00 | > 6.00 | > 6.00
Cc1cc(-c2ccc3oc(N)nc3c2)cc2c(C(=O)N3CCCC3)cnn12 [Compound 368] | > 5.00 | > 6.00 | > 7.00 | > 6.00
Cc1c(-c2ccc3ncc(C(=O)N4CCOCC4)n3c2)ccc2oc(N)nc12 [Compound 369] | < 5.00 | < 5.00 | < 5.00 | < 5.00
Nc1nc2cc(-c3ccc4ncc(N5CC(N6CCOCC6)C5)nc4c3)c(Cl)cc2o1 [Compound 371] | > 5.00 | < 5.00 | > 6.00 | < 5.00
Cc1c(-c2ccc3oc(N)nc3c2)ccc2ncc(N3CCN[C@@H](C)C3)nc12 [Compound 374] | > 7.00 | > 5.00 | > 6.00 | < 5.00
Nc1nc2cc(-c3ccc4ncc(N5CC[C@H](N6CCOCC6)C5)nc4c3)ccc2o1 [Compound 375] | > 5.00 | > 6.00 | > 6.00 | > 6.00
CN1CCN(C(=O)c2cnn3ccc(-c4ccc5oc(N)nc5c4)cc23)CC1 [Compound 380] | > 5.00 | < 5.00 | > 6.00 | > 5.00
Cc1c(-c2ccc3oc(N)nc3c2)ccc2ncc(N3CC(N4CCOCC4)C3)nc12 [Compound 383] | < 5.00 | < 5.00 | > 6.00 | < 5.00
CN1CCC(c2cnc3ccc(-c4ccc5oc(N)nc5c4)cc3n2)CC1 [Compound 385] | > 5.00 | < 5.00 | > 7.00 | < 5.00
Nc1nc2cc(-c3ccc4ncc(N5CCNCC5=O)nc4c3)ccc2o1 [Compound 389] | < 5.00 | < 5.00 | > 6.00 | > 5.00
CCN1CCN(c2cnc3ccc(-c4ccc5oc(N)nc5c4)cc3n2)C(=O)C1 [Compound 391] | < 5.00 | < 5.00 | > 5.00 | < 5.00
CC(C)N1CCN(c2cnc3ccc(-c4ccc5oc(N)nc5c4)cc3n2)C(=O)C1 [Compound 392] | < 5.00 | < 5.00 | < 5.00 | < 5.00
Nc1nc2cc(-c3ccc4ncc(N5CCN(CC6CC6)CC5=O)nc4c3)ccc2o1 [Compound 393] | < 5.00 | < 5.00 | > 5.00 | < 5.00
Nc1nc2cc(-c3ccc4ncc(N5CCn6cncc6C5)nc4c3)ccc2o1 [Compound 394] | > 7.00 | > 6.00 | > 7.00 | > 7.00
Nc1nc2cc(-c3ccc4ncc(N5CCN(CC(F)(F)F)CC5)nc4c3)ccc2o1 [Compound 395] | < 5.00 | < 5.00 | > 7.00 | > 7.00
C[C@H]1CN(c2cnc3ccc(-c4ccc5oc(N)nc5c4)cc3c2)CCN1 [Compound 396] | > 7.00 | < 5.00 | > 7.00 | > 5.00
Cc1cc(-c2ccc3oc(N)nc3c2)cc2c(-c3ccncc3)cnn12 [Compound 397] | > 6.00 | > 6.00 | > 7.00 | > 7.00
Nc1nc2cc(-c3ccn4ncc(C(=O)N5CCC(N6CCOCC6)CC5)c4c3)ccc2o1 [Compound 398] | > 5.00 | > 5.00 | > 6.00 | > 5.00
C[C@H]1CN(c2cnc3scc(-c4ccc5oc(N)nc5c4)c3c2)CCN1 [Compound 399] | < 5.00 | < 5.00 | < 5.00 | < 5.00
CC(=O)Nc1cc2ccc(-c3cc(F)c4oc(N)nc4c3)cn2n1 [Compound 401] | < 5.00 | < 5.00 | < 5.00 | > 5.00
C[C@H]1CN(c2nc3cc(-c4ccc5oc(N)nc5c4)ccc3nc2N)CCN1 [Compound 403] | < 5.00 | < 5.00 | > 5.00 | < 5.00
O=C(c1cnc2ccc(-c3ccc4oc(Nc5ccccc5)nc4c3)cn12)N1CCOCC1 [Compound 407] | > 5.00 | < 5.00 | < 5.00 | < 5.00

Structure (SMILES) | pIC50 (PI3K β (p110β/p85α)) | pIC50 (PI3K δ) | pIC50 (PI3K α (p110α/p85α)) | pIC50 (PI3K γ (p110γ))
CN1CCC(Nc2nc3cc(-c4ccc5ncc(C(=O)N6CCOCC6)n5c4)ccc3o2)CC1 [Compound 408] | < 5.00 | < 5.00 | < 5.00 | < 5.00
O=C(c1cnc2ccc(-c3ccc4oc(NC5CC5)nc4c3)cn12)N1CCOCC1 [Compound 409] | < 5.00 | < 5.00 | > 5.00 | < 5.00
Nc1ncc(-c2ccc3ncc(C(=O)N4CCOCC4)n3c2)cc1C(F)(F)F [Compound 410] | < 5.00 | < 5.00 | > 5.00 | < 5.00
CC(Oc1nc(-c2ccc3ncc(C(=O)N4CCOCC4)n3c2)cnc1N)C(F)(F)F (centres unmarked) [Compound 411] | > 5.00 | > 5.00 | > 7.00 | > 6.00
Nc1nc2nc(-c3ccc4ncc(C(=O)N5CCOCC5)n4c3)ccc2o1 [Compound 412] | < 5.00 | < 5.00 | > 5.00 | < 5.00
Nc1nc2cc(-c3ccc4ncc(N5CCNC(C(F)F)C5)nc4c3)ccc2o1 (centres unmarked) [Compound 413] | > 6.00 | > 5.00 | > 7.00 | > 6.00
COc1ncc(-c2ccc3ncc(C(=O)N4CCOCC4)n3c2)cc1NS(C)(=O)=O [Compound 416] | > 5.00 | > 5.00 | > 7.00 | > 6.00
COc1ncc(-c2ccc3ncc(C(=O)N4CCOCC4)n3c2)cc1NS(=O)(=O)c1ccccc1 [Compound 420] | < 5.00 | > 6.00 | > 7.00 | > 6.00
COc1ncc(-c2ccc3ncc(C(=O)N4CCOCC4)n3c2)cc1NS(=O)(=O)c1ccc(F)cc1 [Compound 421] | > 6.00 | > 7.00 | > 7.00 | > 7.00
COc1ncc(-c2ccc3ncc(C(=O)N4CCOCC4)n3c2)cc1NS(=O)(=O)c1ccccc1F [Compound 422] | > 5.00 | > 6.00 | > 7.00 | > 7.00
O=C(c1cnc2ccc(-c3cncc(NS(=O)(=O)c4ccccc4)c3)cn12)N1CCOCC1 [Compound 424] | < 5.00 | > 5.00 | > 6.00 | > 6.00
O=C(c1cnc2ccc(-c3cncc(NS(=O)(=O)c4ccc(F)cc4F)c3)cn12)N1CCOCC1 [Compound 425] | < 5.00 | > 6.00 | > 7.00 | > 7.00
CC(=O)n1nc(N)c2ccc(-c3ccc4oc(N)nc4c3)cc21 [Compound 426] | < 5.00 | < 5.00 | < 5.00 | < 5.00
Nc1nc2cc(-c3ccc4c(N)n[nH]c4c3)ccc2o1 [Compound 428] | > 5.00 | < 5.00 | > 5.00 | > 6.00
Nc1nc2cc(-c3cc(F)c4oc(N)nc4c3)ccc2o1 [Compound 432] | > 6.00 | < 5.00 | > 5.00 | > 7.00
CC(=O)Nc1nc2cc(-c3cc(F)c4oc(N)nc4c3)ccc2s1 [Compound 435] | > 5.00 | < 5.00 | > 5.00 | > 7.00
Nc1nc2cc(-c3ccc4sc(N)nc4c3)cc(F)c2o1 [Compound 437] | > 6.00 | < 5.00 | > 5.00 | > 6.00
Nc1nc2ccc(-c3cc(F)c4ncc(C(=O)N5CCOCC5)n4c3)cc2o1 [Compound 439] | < 5.00 | < 5.00 | > 5.00 | < 5.00
CNS(=O)(=O)c1cccc(-c2ccc3ncc(C(=O)N4CCOCC4)n3c2)c1 [Compound 442] | < 5.00 | < 5.00 | < 5.00 | < 5.00
CS(=O)(=O)Nc1cccc(-c2ccc3ncc(C(=O)N4CCOCC4)n3c2)c1 [Compound 443] | < 5.00 | < 5.00 | < 5.00 | < 5.00
CN1CCN(n2cnc3ccc(-c4ccc5oc(N)nc5c4)cc3c2=O)CC1 [Compound 446] | < 5.00 | < 5.00 | > 6.00 | < 5.00
Cc1cc(-c2ccc3oc(N)nc3c2)cn2c(C(=O)N3CCOCC3)cnc12 [Compound 448] | < 5.00 | < 5.00 | > 6.00 | > 5.00
Cc1cc(-c2ccc3nc(N)oc3c2)cn2c(C(=O)N3CCOCC3)cnc12 [Compound 449] | > 6.00 | < 5.00 | > 6.00 | > 7.00
CNS(=O)(=O)c1cncc(-c2ccc3ncc(C(=O)N4CCOCC4)n3c2)c1 [Compound 450] | < 5.00 | < 5.00 | > 5.00 | < 5.00
O=C(c1cnc2ccc(-c3cccc(NS(=O)(=O)c4ccccc4)c3)cn12)N1CCOCC1 [Compound 453] | < 5.00 | < 5.00 | > 5.00 | > 5.00
